In publication PMC12627862, “Therapeutic targeting of endothelial calcium signaling accelerates the resolution of lung injury” (Signal Transduction and Targeted Therapy, 2025):
Starred links: 1 amine or outer side, 2 acyl side, 3 side chain; linkers in the order of their positions; H or OH if unused. Non-standard residues stand in square brackets, D forms with d. Residues, ends and D or L forms follow the SMILES beside them. ξ: configuration not given here. Oic = O=C(O)[C@@H]1C[C@@H]2CCCC[C@@H]2N1; GABOB(3R) = O=C(C[C@@H](O)CN[*:1])[*:2]; tBuAla = CC(C)(C)C[C@H](N)C(=O)O; ξVal(3-OH) = CC(C)(O)C(N)C(=O)O; 4Amb = NCc1ccc(C(=O)O)cc1

Key:
[1] = Non-GLP dose-escalation (MTD) study in rats; type: in vivo, rat; conditions: rat, in vivo; male Crl:CD (SD) rats, single IV bolus; read-out: no observed adverse effect level (NOAEL)
[2] = tested on: splenocytes from CD1 mice; assay: Cytokine release by immune cells in vitro; type: cell-based, mouse; conditions: 2 µg/mL LPS for 2 hours, VT-109 200 nM and 1 µM
Experimental: VT-109’s effect on cytokine release by immune cells in vitro. Freshly isolated splenocytes from CD1 mice were treated with 2 µg/mL LPS for 2 hours. Two different concentrations of VT-109 (200 nM and 1 µM) were tested, and the cells were treated concurrently with LPS. Untreated splenocytes served as the control. After the 2-hour incubation, MCP-1, TNF-α, KC, and IL-6 levels were measured in the growth media using mouse multiplexed ELISA array. Data are expressed as pg/mL.

[3] = tested on: CD1 mice, cecal ligation and puncture; assay: Polymicrobial sepsis model (CLP); type: in vivo, mouse
[4] = Pharmacokinetic studies in rats
Experimental: Blood samples were collected at predefined time points (2, 10, 30, 60, 90 minutes, and 2, 4, 6, 8, and 24 hours post-dosing) from subgroups of rats, ensuring each animal contributed a limited number of samples to minimize stress. Plasma was separated by centrifugation and stored at -80 °C until analysis. Lungs were collected at selected time points (0.5, 2, 8, and 24 hours) for drug quantification. […] Pharmacokinetic parameters, including Cmax, Tmax, AUC, half-life, clearance, and volume of distribution, were calculated using Phoenix WinNonlin software.

Pseudomonas aeruginosa = assay: I.t. P. aeruginosa-induced pneumonia; type: in vivo, mouse
Source text: Most ARDS cases arise secondary to pneumonia, in which infectious agents directly target the alveolar epithelium. Damage to these epithelial cells disrupts the integrity of the alveolar–capillary barrier, leading to protein-rich pulmonary edema and widespread inflammation, two hallmark features of diffuse alveolar damage. Because endothelial barrier disruption is a downstream consequence in this context, we also evaluated the benefits of VT-109 treatment in a model of Pseudomonas aeruginosa–induced lung injury, the most commonly acquired hospital-associated pneumonia. Mice were infected with a sublethal intratracheal dose of 5 × 10^5 CFU Pseudomonas aeruginosa and treated with a moderately efficacious dose of VT-109 (250 nmol/kg bw) at 5 hours post-challenge. The lung tissues were collected at 24 and 48 hours for histopathological analysis of acute lung injury, neutrophil influx, and bacterial counts in BALF (Fig. 5k–n and Supplementary Fig. 4j).
Mice (CD1) were anesthetized by intraperitoneal injection of xylazine and positioned supine on a sterile surgical surface. A small midline incision was made in the neck to expose the trachea. GFP-expressing Pseudomonas aeruginosa (PA) was cultured overnight in LB broth supplemented with carbenicillin (100 µg/mL). A total volume of 30 µL PBS containing 0.5 × 10⁶ colony-forming units (CFU) was injected directly into the trachea using a sterile 28G insulin syringe. Following intratracheal instillation, mice received VT-109 (250 nmol/kg body weight) or vehicle by IV at 5- and 24-hours post-infection. Lung tissues were collected at 24 and 48 hours to assess treatment effects. The left lung was inflated with fixative and harvested for histological analysis, while the right lung was collected for bacterial quantification. For CFU analysis, the right lung was homogenized in 1 mL of sterile PBS using a bead-based tissue homogenizer. Homogenates were serially diluted and plated on LB agar containing carbenicillin (100 µg/mL). Plates were incubated overnight at 37 °C, and CFUs were counted the following day. […]

in vitro = conditions: dog, plasma
Experimental: Stability assay of peptides in blood plasma of rodents, dogs, and humans. For the plasma stability assay, 5 μM of each peptide was incubated with species-specific plasma for 120 minutes and samples were taken at the required time points. Positive control used were molecules with known stability: enalapril, propantheline, and warfarin. The amount of test compound remaining at each time point was analyzed by LC-MS/MS. Appropriate control compounds for each species were also incubated.

[5] = tested on: CD-1 mice subjected to mechanical ventilation; assay: High tidal volume mechanical ventilation (VILI); type: in vivo, mouse; conditions: HVMV 40 mL/kg bw for 2 hours; i.v. 2 µmol/kg bw
Source text: Severely ill ARDS patients undergo intubation and are placed on a mechanical ventilator to maintain adequate oxygen levels in the body[42]. This supportive intervention can have detrimental effects on the lungs, leading to diffuse ventilator-induced lung injury (VILI) in the regions exposed to the highest pressure. Furthermore, VILI primarily targets alveolar epithelial cells, in contrast to indirect models of ARDS, such as endotoxemia and sepsis, where systemic inflammation predominantly injures the pulmonary endothelial barrier. Thus, as a part of a safety study, we investigated the effects of VT-109 on the pathogenesis of VILI. Mice that received vehicle or VT-109 at the most efficacious dose of 2 µmol/kg bw were subjected to high-volume mechanical ventilation (HVMV) at 40 mL/kg bw for 2 hours, and albumin extravasation was measured to determine VILI-induced vascular leakage (Fig. 4g, h).
Mice intubated with a 20-gauge catheter were ventilated using a Harvard Apparatus ventilator (Harvard Bioscience) with high tidal volumes of 40 mL/kg body weight, a respiratory rate of 80 breaths per minute, and no positive end-expiratory pressure (PEEP) for 2 hours to induce ventilator-induced lung injury (VILI). Intravenous treatment with 250 nmol/kg bw VT-109 was administered at the onset of HVMV. Mice breathing spontaneously were used as experimental control.

[6] = 24 hours after CLP, 18-gauge, n = 3
[7] = 24 hours after CLP, 2 µmol/kg bw i.v. 5 hours post-surgery, n = 5
[8] = BAL 24 hours after CLP, treatment at 5 hours post-surgery, Mean±Std, n = 8–10
[9] = CLP, VT-109 monotherapy 2 µmol/kg bw i.v.
[10] = PF (peritoneal fluid), head says BAL, CLP, Mean±Std
[11] = male, Crl:CD (SD), rat, in vivo, iv, 5 mg/kg
[12] = rat lungs, single IV 5 mg/kg, Phoenix WinNonlin
[13] = rat plasma, single IV 5 mg/kg, Phoenix WinNonlin

For `CC(C)(C)C[C@@H]1NC(=O)C[C@@H](O)CNC(=O)[C@@H]2C[C@@H]3CCCC[C@@H]3N2C(=O)[C@H](CC(C)(C)C)NC(=O)c2ccc(cc2)CNC(=O)C(C(C)(C)O)NC(=O)[C@@H](Cc2ccccc2)NC1=O` (stereo partly drawn) [compound 109, (1^2S,1^3aS,1^7aS,3S,10S,13R,16S,20R)-13-benzyl-20-hydroxy-10-(2-hydroxypropan-2-yl)-3,16-dineopentyl-1^2,1^3,1^3a,1^4,1^5,1^6,1^7,1^7a-octahydro-1^1H-4,8,11,14,17,22-hexaaza-1(1,2)-indola-6(1,4)-benzenacyclotricosaphane-2,5,9,12,15,18,23-heptaone.] (cyclo([4Amb][tBuAla][Oic][GABOB(3R)][tBuAla][dF][ξVal(3-OH)])), the NOAEL at 72 h [1] was 5 mg/kg, the “cytokine production by immune cells in vitro (MCP-1, TNFα, KC, IL-6)” value [2] was “nor did it directly alter cytokine production” and the “bacterial counts in the blood or peritoneal fluid” value ([3]; 24 hours after CLP) was “did not affect”. For the same compound, the “phosphorylation of FOXM1 at Ser715” value [3, 6] was “increased phosphorylation”, the “sepsis-induced changes of FOXM1, FOXO1, E2F3, β-catenin and p21 in lung tissue (Western blot)” value [3, 6] was “reversed these changes” and the “VE-cadherin and occludin expression” value ([3]; 24 hours after CLP, 18-gauge, to the baseline levels of sham mice) was “restored”. The “alanine aminotransferase (ALT), blood” value [3, 7] was “reduced levels”, the “blood urea nitrogen (BUN)” value [3, 7] was “reduced levels” and the “bacterial colony counts in bronchoalveolar lavage fluid (BALF)” value ([3]; 24 hours after CLP, VT-109 monotherapy versus vehicle) was “markedly reduced”. The “BAL Cytokine mGM-CSF” value [3, 8] was 1.21 ± 0.70 pg/mL, the “BAL Cytokine mIFNγ” value [3, 8] was 0.49 ± 0.34 pg/mL and the “BAL Cytokine mIL-1a” value [3, 8] was 0.14 ± 0.00 pg/mL. The “BAL Cytokine mIL-1b” value [3, 8] was 1.59 ± 1.01 pg/mL, the “BAL Cytokine mIL-4” value [3, 8] was 2.79 ± 1.03 pg/mL and the “BAL Cytokine mIL-6” value [3, 8] was 282.12 ± 522.24 pg/mL. The “BAL Cytokine mIL-10” value [3, 8] was 2.19 ± 2.95 pg/mL, the “BAL Cytokine mIL-12” value [3, 8] was 16.99 ± 7.90 pg/mL and the “BAL Cytokine mIL-17” value [3, 8] was 0.14 ± 0.00 pg/mL. For the same compound, the “BAL Cytokine mKC” value [3, 8] was 609.75 ± 878.78 pg/mL, the “BAL Cytokine mMCP-1” value [3, 8] was 19.17 ± 28.01 pg/mL and the “BAL Cytokine mMIP-1α” value [3, 8] was 1.16 ± 1.31 pg/mL. For the same compound, the “BAL Cytokine mRANTES” value [3, 8] was 2.55 ± 5.23 pg/mL, the survival rate ([3]; CLP 18-gauge, VT-109 monotherapy 2 µmol/kg bw i.v., initiated 5 hours post-surgery) was “significantly improved the survival rate” and the survival ([3]; CLP 18-gauge, monotherapy: VT-109 0.5 µmol/kg bw or enrofloxacin 5 mg/kg bw) was “neither antibiotics nor VT-109 monotherapy (0.5 µmol/kg bw) significantly improved survival”. For the same compound, the “acute lung injury (H&E, ALI score)” value [3, 9] was “prevented the development of acute lung injury”, the “neutrophil recruitment into lung tissue (Ly6G)” value [3, 9] was “markedly suppressed” and the “Cytokine mGM-CSF” value [3, 10] was 15.75 ± 20.22 pg/mL. The “Cytokine mIFNγ” value [3, 10] was 4.39 ± 3.00 pg/mL, the “Cytokine mIL-1a” value [3, 10] was 104.93 ± 94.65 pg/mL and the “Cytokine mIL-1b” value [3, 10] was 229.14 ± 237.82 pg/mL. The “Cytokine mIL-3” value [3, 10] was 0.28 ± 0.00 pg/mL, the “Cytokine mIL-4” value [3, 10] was 6.90 ± 0.83 pg/mL and the “Cytokine mIL-5” value [3, 10] was 5.06 ± 2.77 pg/mL. For the same compound, the “Cytokine mIL-6” value [3, 10] was 46833 ± 65942 pg/mL, the “Cytokine mIL-10” value [3, 10] was 432.67 ± 490.14 pg/mL and the “Cytokine mIL-12” value [3, 10] was 57.48 ± 43.37 pg/mL. For the same compound, the “Cytokine mIL-17” value [3, 10] was 7.20 ± 5.26 pg/mL, the “Cytokine mKC” value [3, 10] was 24611 ± 34486 pg/mL and the “Cytokine mMCP-1” value [3, 10] was 16338 ± 17531 pg/mL. For the same compound, the “Cytokine mMIP-1α” value [3, 10] was 5136 ± 8056 pg/mL, the “Cytokine mRANTES” value [3, 10] was 382.32 ± 397.78 pg/mL and the “Cytokine mTNFα” value [3, 10] was 29.39 ± 31.64 pg/mL. The AUC(0-t) [4, 11] was 12400 ng·h/mL, the C0 [4, 11] was 46300 ng/mL and the Tmax [4, 11] was 1.98 min. For the same compound, the Vd [4, 11] was 3.1 L/kg, the clearance [4, 11] was 6.72 mL/min/kg and the half-life [4, 11] was 5.33 h. For the same compound, the “AUC (0-last)” value [4, 12] was 27219 ng·h/g, the Cmax [4, 12] was 3606 ng/g and the Lambda_z [4, 12] was 0.1535 h⁻¹. For the same compound, the half-life [4, 12] was 4.52 h, the “persistence of substantial amounts in the lung post dose” value ([4]; rat lungs, single intravenous injection) was “at least 24 hours” and the Cmax [4, 13] was 40548 ng/mL. The Lambda_z [4, 13] was 0.1299 h⁻¹, the “time of peak plasma concentrations (Cmax) after dosing” value ([4]; rat plasma, single intravenous injection) was at most 2 min and the “neutrophils in the lung tissues” value (Pseudomonas aeruginosa; 5 × 10^5 CFU i.t., 250 nmol/kg bw at 5 hours post-challenge, 24 and 48 hours) was “far fewer neutrophils”. For the same compound, the “lung injury (histopathology)” value (Pseudomonas aeruginosa; 5 × 10^5 CFU i.t., 250 nmol/kg bw, 24 and 48 hours) was “appeared uninjured”, the bacterial counts (Pseudomonas aeruginosa; both time points, did not reach statistical significance) was “modest reduction” and the half-life at 5 μM (in vitro) was over 8 h. For the same compound, the remaining at 2 h, 5 μM (in vitro) was 91.9%, the “VILI-induced vascular albumin leakage” value [5] was “markedly reduced leakage” and the “recruitment of neutrophils (MPO levels in the lung tissues)” value [5] was “prevented”.
